Data reported in ChEMBL document CHEMBL1131494, “Novel 17-azolyl steroids, potent inhibitors of human cytochrome 17 alpha-hydroxylase-C17,20-lyase (P450(17) alpha): potential agents for the treatment of prostate cancer” (J Med Chem, 1998).

Experiments:
[1] = target: T1, Steroid 17-alpha-hydroxylase/17,20 lyase (Homo sapiens, UniProt P05093); assay: Inhibition of human testicular microsomal cytochrome P450 17A1 at 150 nM; NI = No inhibition; settings: 0.15 µM
T1 sequence (P05093 whole entry): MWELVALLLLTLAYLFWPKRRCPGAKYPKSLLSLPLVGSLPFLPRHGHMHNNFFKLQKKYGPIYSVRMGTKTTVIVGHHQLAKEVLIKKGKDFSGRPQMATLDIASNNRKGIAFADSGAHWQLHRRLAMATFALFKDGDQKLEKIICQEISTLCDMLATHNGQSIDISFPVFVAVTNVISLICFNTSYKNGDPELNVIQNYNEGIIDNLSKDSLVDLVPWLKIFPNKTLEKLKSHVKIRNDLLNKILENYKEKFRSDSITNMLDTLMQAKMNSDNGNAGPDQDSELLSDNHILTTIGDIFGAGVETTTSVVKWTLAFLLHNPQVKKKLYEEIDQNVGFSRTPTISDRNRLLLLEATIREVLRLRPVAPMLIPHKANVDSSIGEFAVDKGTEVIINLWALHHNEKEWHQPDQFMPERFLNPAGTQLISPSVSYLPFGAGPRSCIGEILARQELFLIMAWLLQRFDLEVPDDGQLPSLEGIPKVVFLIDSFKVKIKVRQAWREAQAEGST

[2] = target: T1, Steroid 17-alpha-hydroxylase/17,20 lyase
Description: Binding affinity for Cytochrome P450 17A1 (17-alpha-hydroxypregnenolone Km=560 nM)

[3] = Inhibition of human steroid 5-alpha-reductase
[4] = target: T1, Steroid 17-alpha-hydroxylase/17,20 lyase; assay: Inhibition of human testicular microsomal Cytochrome P450 17A1
[5] = target: T2, Steroid 17-alpha-hydroxylase/17,20 lyase (Rattus norvegicus, UniProt P11715); assay: Inhibition of rat Cytochrome P450 17A1
T2 sequence (P11715 whole entry): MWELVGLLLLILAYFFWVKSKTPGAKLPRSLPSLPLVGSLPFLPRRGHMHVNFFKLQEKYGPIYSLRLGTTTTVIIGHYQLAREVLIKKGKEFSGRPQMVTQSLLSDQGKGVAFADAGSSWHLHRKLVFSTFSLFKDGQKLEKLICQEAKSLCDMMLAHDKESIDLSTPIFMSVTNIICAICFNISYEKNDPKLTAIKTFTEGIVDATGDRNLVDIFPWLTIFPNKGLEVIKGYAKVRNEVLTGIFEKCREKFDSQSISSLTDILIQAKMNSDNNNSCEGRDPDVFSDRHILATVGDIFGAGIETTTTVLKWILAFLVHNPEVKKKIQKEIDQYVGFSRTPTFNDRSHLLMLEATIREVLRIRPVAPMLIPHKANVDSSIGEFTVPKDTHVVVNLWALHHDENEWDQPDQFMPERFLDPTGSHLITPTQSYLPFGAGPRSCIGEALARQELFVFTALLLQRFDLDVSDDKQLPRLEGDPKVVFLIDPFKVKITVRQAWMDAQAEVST

[6] = target: T2, Steroid 17-alpha-hydroxylase/17,20 lyase; assay: Inhibition of rat cytochrome P450 17A1
[7] = target: T1, Steroid 17-alpha-hydroxylase/17,20 lyase; assay: Inhibition of human testicular microsomal cytochrome P450 17A1 at 150 nM; NI = No inhibition; settings: 0.15 µM
[8] = target: T1, Steroid 17-alpha-hydroxylase/17,20 lyase; remark: listed apart in the source
[9] = target: T1, Steroid 17-alpha-hydroxylase/17,20 lyase; assay: Inhibition of human testicular microsomal cytochrome P450 17A1 at 150 nM; no inhibition

SMILES | Ki [2] [µM] | IC50 [3] [µM] | IC50 [4] [µM] | IC50 [5] [µM] | further results
C[C@]12CC[C@H](O)CC1=CCC1C2CC[C@]2(C)C(n3ncnn3)=CCC12 (stereo partly drawn) | – | – | – | – | Inhibition [1]: Not Active
C[C@]12CC[C@H](O)CC1=CCC1C2CC[C@]2(C)C(n3ccnc3)=CCC12 (stereo partly drawn) | 0.0012 | 400 | 0.008 | 0.009 | –
CC(C)(C)NC(=O)[C@H]1CC[C@H]2[C@@H]3CC[C@H]4NC(=O)C=C[C@]4(C)[C@H]3CC[C@]12C [FINASTERIDE] | – | 0.033 | – | – | –
C[C@]12CC[C@H](O)CC1=CC[C@@H]1[C@@H]2CC[C@]2(C)C(n3cncn3)=CC[C@@H]12 | 0.023 | 160 | 0.09 | – | IC50 [6]: 0.026 µM
C[C@]12CC[C@H](O)CC1=CCC1C2CC[C@]2(C)C(n3cnnn3)=CCC12 (stereo partly drawn) | – | – | – | – | Inhibition [7]: Not Active
C[C@]12CCC(=O)C=C1CCC1C2CC[C@]2(C)C(n3cncn3)=CCC12 (stereo partly drawn) | 0.041 | 0.152 | 0.055 | 0.011 | –
C[C@]12CC[C@H](O)CC1=CCC1C2CC[C@]2(C)C(n3ccnn3)=CCC12 (stereo partly drawn) | 0.0014 | 10 | 0.013 | 0.01 | –
C[C@]12CCC(=O)C=C1CCC1C2CC[C@]2(C)C(n3ccnn3)=CCC12 (stereo partly drawn) | – | 0.198 | 0.019 | – | IC50 [6]: 0.009 µM; Ki [8]: 0.008 µM
C[C@]12CC[C@H](O)CC1=CCC1C2CC[C@]2(C)C(n3nccn3)=CCC12 (stereo partly drawn) | – | – | – | – | IC50 [9]: Not Active
C[C@]12CCC(=O)C=C1CCC1C2CC[C@]2(C)C(n3ccnc3)=CCC12 (stereo partly drawn) | 0.0019 | 0.142 | 0.007 | 0.008 | –
